Measured values reported in the supplement of paper PMC11919725.

Columns and labels:
[1] = tested on: Jurkat; assay: confluency relative to DMSO, 18 h (ratio); higher = more viable
Outline: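 Jurkat cells or primary CD4+/CD8+ T cells, either naive or activated for 48 h with CD3/CD28 Dynabeads, were exposed to compound from 1 nM to 10 µM in log10 steps for 18 h at 37 °C and 5% CO2. Afterwards, 100 µl of each suspension was moved into 96-well plates containing IncuCyte Cytotox Dye and alamarBlue. Phase-contrast images were taken at ×10, five per well, every hour for 3 h. Confluency was derived from these images with the IncuCyte Basic Analyzer, and values are expressed relative to the mean of the control wells.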

[2] = tested on: Jurkat; assay: metabolic activity relative to DMSO, 18 h (ratio); higher = more viable
Outline: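 Metabolic activity values are normalised to the average of vehicle control wells. They come from Jurkat or primary CD4+/CD8+ T cells (naive, or activated 48 h with CD3/CD28 Dynabeads) treated for 18 h at 37 °C, 5% CO2 with compound over 1 nM–10 µM in log10 steps. Then 100 µl of each suspension was mixed in 96-well plates with alamarBlue (10% v/v final), and fluorescence at 544 nm excitation and 584 nm emission was recorded on a FluoStar Omega 3.5 h later.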

[3] = tested on: Jurkat; assay: cytotoxicity relative to DMSO, 18 h (ratio); higher = less cell death (drugs called cytotoxic fall below 1)
Outline: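 Fluorescence was imaged at ×10, five images per well, every hour for 3 h, in 96-well plates holding 100 µl of treated cell suspension and IncuCyte Cytotox Dye at 250 nM final. Before plating, Jurkat cells or primary CD4+/CD8+ T cells (naive, or activated 48 h with CD3/CD28 Dynabeads) had been treated for 18 h with compound across 1 nM–10 µM in log10 steps at 37 °C, 5% CO2. Cytotoxicity values were based on these IncuCyte signals after confluency correction and normalisation to the mean of control wells.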

SMILES | confluency ([1]; 1 nM) | confluency ([1]; 10 nM) | confluency ([1]; 100 nM) | confluency ([1]; 1000 nM) | confluency ([1]; 10000 nM) | metabolic activity ([2]; 1 nM) | metabolic activity ([2]; 10 nM) | metabolic activity ([2]; 100 nM) | metabolic activity ([2]; 1000 nM) | metabolic activity ([2]; 10000 nM) | cytotoxicity ([3]; 1 nM) | cytotoxicity ([3]; 10 nM) | cytotoxicity ([3]; 100 nM) | cytotoxicity ([3]; 1000 nM) | cytotoxicity ([3]; 10000 nM)
COc1ccc(Cl)c(Nc2nc3ccccc3nc2NS(=O)(=O)c2cccc(NC(=O)C(C)(C)N)c2)c1 [Pilaralisib] | 0.978 | 1.01 | 1.01 | 0.994 | 0.976 | 1.02 | 1.03 | 1.03 | 0.939 | 0.877 | 1.06 | 1.11 | 1.1 | 0.959 | 0.942
CC(C)N(CC1OC(n2cnc3c(N)ncnc32)C(O)C1O)C1CC(CCc2nc3ccc(C(C)(C)C)cc3[nH]2)C1 (stereo not given) [Pinometostat] | 0.929 | 0.934 | 1.11 | 1.02 | 0.941 | 0.998 | 1.05 | 1.12 | 0.858 | 0.958 | 0.982 | 1.06 | 1.25 | 1.01 | 1
Nc1cccc2c1C(=O)N(C1CCC(=O)NC1=O)C2=O (stereo not given) [Pomalidomide] | 0.955 | 0.902 | 0.943 | 0.948 | 0.94 | 0.995 | 1.01 | 1.04 | 1.12 | 1.09 | 1.04 | 0.986 | 0.512 | 1.03 | 0.936
CC12C=CC(=O)C=C1CCC1C2C(=O)CC2(C)C1CCC2(O)C(=O)CO (stereo not given) [Prednisone] | 1.01 | 0.981 | 0.993 | 1.01 | 1.02 | 0.872 | 0.991 | 1.07 | 1.04 | 1.15 | 0.964 | 1.01 | 1.02 | 1.05 | 1.21
Cn1cc(CNCC2CCN(c3ncc(C(=O)NO)cn3)CC2)c2ccccc21 [Quisinostat] | 0.847 | 0.918 | 0.963 | 1.02 | 0.957 | 0.876 | 1.04 | 0.875 | 0.688 | 0.667 | 0.816 | 1.07 | 0.897 | 0.958 | 0.908
COc1ccc(F)c(F)c1C(=O)c1cnc(NC2CCN(S(C)(=O)=O)CC2)nc1N [R-547] | 1.07 | 1.18 | 1.04 | 1.04 | 1.01 | 1.09 | 1.02 | 1 | 0.739 | 0.134 | 1.01 | 0.934 | 1.08 | 1.04 | 1.04
COC1CC2CCC(C)C(O)(O2)C(=O)C(=O)N2CCCCC2C(=O)OC(C(C)CC2CCC(O)C(OC)C2)CC(=O)C(C)C=C(C)C(O)C(OC)C(=O)C(C)CC(C)C=CC=CC=C1C (stereo not given) [Rapamycin] | 1.01 | 0.98 | 0.933 | 0.902 | 0.81 | 0.859 | 0.948 | 0.789 | 0.77 | 0.742 | 0.973 | 1.02 | 1.05 | 0.913 | 0.831
Cn1nccc1Nc1nccc(-c2ccn(C(CO)c3ccc(Cl)c(F)c3)c(=O)c2)n1 (stereo not given) [Ravoxertinib] | 0.989 | 0.841 | 0.884 | 0.894 | 0.886 | 0.977 | 0.997 | 1.04 | 1.07 | 1.1 | 1.1 | 0.921 | 1 | 0.983 | 1.02
CN(C)C(=O)c1cc2cnc(Nc3ccc(N4CCNCC4)cn3)nc2n1C1CCCC1 [Ribociclib] | 1 | 0.964 | 1.09 | 1.06 | 1.14 | 0.887 | 0.874 | 0.862 | 0.879 | 0.856 | 0.914 | 0.883 | 1.01 | 0.984 | 1.06
O=C(CCCCCCNC(=O)c1cnc(N(c2ccccc2)c2ccccc2)nc1)NO [Ricolinostat] | 1.01 | 1 | 1.03 | 0.976 | 0.984 | 0.874 | 0.881 | 0.933 | 0.841 | 0.655 | 1.01 | 0.933 | 1.07 | 0.969 | 0.881
COc1cc(OC)c(C=CS(=O)(=O)Cc2ccc(OC)c(NCC(=O)O)c2)c(OC)c1 [Rigosertib] | 1.02 | 1.01 | 1.01 | 0.871 | 0.797 | 1.01 | 1.01 | 0.87 | 0.426 | 0.468 | 0.92 | 0.988 | 0.948 | 0.711 | 0.621
CN1CCC(c2c(O)cc(O)c3c(=O)cc(-c4ccccc4Cl)oc23)C1CO (stereo not given) [Riviciclib] | 1.07 | 1.04 | 0.985 | 0.866 | 1.03 | 1.04 | 0.872 | 0.754 | 0.6 | 0.242 | 0.627 | 0.605 | 1 | 0.783 | 1.04
CC=C1NC(=O)C2CSSCCC=CC(CC(=O)NC(C(C)C)C(=O)N2)OC(=O)C(C(C)C)NC1=O (stereo not given) [Romidepsin] | 0.987 | 1.07 | 1.02 | 1 | 1.03 | 1.1 | 0.839 | 0.703 | 0.539 | 0.042 | 0.904 | 0.961 | 0.914 | 1.03 | 1.06
CNCc1ccc(-c2[nH]c3cc(F)cc4c3c2CCNC4=O)cc1 [Rucaparib] | 1.06 | 1.03 | 1.04 | 1.07 | 0.931 | 0.926 | 0.952 | 0.981 | 0.996 | 0.973 | 1.06 | 1 | 1.04 | 1.07 | 0.899
CC(C)(C)c1cnc(CSc2cnc(NC(=O)C3CCNCC3)s2)o1 [SNS-032] | 1.13 | 1.09 | 1.08 | 1.13 | 1.17 | 0.778 | 0.953 | 0.979 | 0.192 | 0.167 | 1.06 | 1.06 | 1.06 | 0.66 | 0.657
O=C(Nc1cccc(Cl)c1)Nc1ncc(CCNc2ncnc3ccsc23)s1 [SNS-314] | 0.951 | 0.963 | 0.974 | 0.907 | 0.78 | 0.955 | 0.945 | 0.979 | 0.909 | 0.797 | 0.951 | 0.912 | 0.92 | 0.832 | 0.733
Cc1nc(-c2cccnc2)sc1C(=O)Nc1ccccc1-c1cn2c(CN3CCOCC3)csc2n1 [SRT2104] | 1.06 | 1.02 | 1.05 | 1.04 | 0.971 | 1.03 | 1.01 | 1.03 | 1.03 | 0.982 | 1.13 | 1.06 | 1.13 | 1.11 | 1.05
CCC(CO)Nc1nc(NCc2ccccc2)c2ncn(C(C)C)c2n1 (stereo not given) [Seliciclib] | 1.03 | 0.968 | 0.924 | 0.977 | 0.943 | 0.994 | 0.987 | 0.945 | 0.962 | 1.03 | 1.02 | 0.922 | 0.883 | 0.948 | 0.957
NC(=O)C1CCCc2c1[nH]c1ccc(Cl)cc21 (stereo not given) [Selisistat] | 0.962 | 0.984 | 0.973 | 0.992 | 0.992 | 1.06 | 1.02 | 0.995 | 1.09 | 1.05 | 0.974 | 0.979 | 0.932 | 1.09 | 0.974
Cn1cnc2c(F)c(Nc3ccc(Br)cc3Cl)c(C(=O)NOCCO)cc21 [Selumetinib] | 0.985 | 0.965 | 0.988 | 0.983 | 0.974 | 1.05 | 1.04 | 1.03 | 1.03 | 1.07 | 1.01 | 0.984 | 1.06 | 1.02 | 0.959
c1ccc2c(CCNc3ccc(Nc4ccncc4)cc3)c[nH]c2c1 [Serdemetan] | 1.02 | 1.02 | 1.06 | 1.04 | 0.841 | 1.04 | 0.963 | 0.905 | 0.863 | 0.816 | 1.08 | 1.1 | 1.21 | 1.06 | 0.829
CNC1CC2OC(C)(C1OC)n1c3ccccc3c3c4c(c5c6ccccc6n2c5c31)C(=O)NC4 (stereo not given) [Staurosporine] | 0.829 | 0.908 | 0.897 | 0.964 | 0.876 | 0.916 | 1.06 | 0.979 | 1.02 | 0.995 | 0.826 | 0.955 | 0.959 | 1.04 | 0.913
CCN(CC)CCNC(=O)c1c(C)[nH]c(C=C2C(=O)Nc3ccc(F)cc32)c1C [Sunitinib] | 0.994 | 0.89 | 0.969 | 0.836 | 0.635 | 1.07 | 0.92 | 0.991 | 0.874 | 0.795 | 0.992 | 0.874 | 1.01 | 0.752 | 0.546
Cn1cc(-c2nc(NC3CCCCC3N)c(F)c3c2C(=O)NC3)cn1 (stereo not given) [TAK-659] | 0.984 | 1.04 | 0.979 | 0.946 | 0.896 | 1.07 | 1.12 | 0.932 | 0.867 | 0.955 | 0.994 | 1.11 | 0.902 | 0.949 | 0.883
